Measured values as given in patent US6781033B2, “Method for the transformation of plant cell plastids” (Monsanto Technology LLC, priority 2000, dated 2004).

Tests used:
[1] = test system: wild-type plant cell plastids of tobacco leaf tissue; experiment: Electron microscopic analysis of plastid ultrastructure in tobacco leaf tissue cultured on drug-containing medium; format: cell-based, Nicotiana tabacum cv Petit Havana
Description: (§1) Wild-type plants of Nicotiana tabacum cv Petit Havana were propagated in sterile hormone free MS medium (Murashige and Skoog (1962) Physiol. Plant. 15,473-497) supplemented with B5 vitamins in Phytatrays or sundae cups with a 16-hour photoperiod at 24° C. Leaf sections were aseptically removed and placed into new plant regeneration medium containing various concentrations of glyphosate, spectinomycin and phospinothricin. The leaf material was collected at 1-week and 4-week time points and prepared for electron microscopic observation of plastid ultrastructure. As a control, wild-type leaf sections were exposed to the initially plastid non-lethal antibiotic, spectinomycin, under identical conditions, or to medium without any drug.
Cultured tobacco leaf pieces 1 mm^2 were fixed in 4% glutaraldehyde in 0.1 M sodium cacodylate buffer, pH 7.2 for 3 hours, with the first 30 minutes under vacuum. The tissue was further fixed in 1% osmium tetroxide in the above buffer for 90 minutes and stained with 1% aqueous uranyl acetate for 2 hours. Ethanol and propylene oxide were used to dehydrate the tissue prior to infiltration with a 1:1 mixture of Spurr's:EMbed 812 resin. The resin was polymerized at 60° C. for 48 hours. The resulting blocks were sectioned on a Leica Ultracut E microtome. Sections 80 nm thick were picked up on formvar/carbon-coated copper slot grids. The grids were stained with uranyl acetate and lead citrate in a LKB Ultrastainer and examined with a JEOL 1200 transmission electron microscope. All reagents were obtained from Electron Microscopy Sciences, Fort Washington, Pa.
Tobacco leaf tissue was also analyzed on medium containing lower concentrations of glyphosate. […] Cultured tissue was prepared for electron microscopy as described above.
To test the general effect of herbicides on plastid morphology, we examined tobacco leaf cultures that were grown in the presence of phosphinothricin (PPT, active ingredient in BASTA herbicide) at 4 mg/L, the concentration normally used for nuclear transformation. Leaves from healthy, tobacco plants at the same developmental stage were cut into about 5 mm×5 mm sections and placed on MS/B5 medium with 3% sucrose, 1 mg/L BAP, 0.1 mg/L NAA and 4 mg/L phosphinothricin for the 3, 7 or 12 days. The leaf sections were then fixed and processed for TEM analysis.

[2] = test system: bombarded tobacco leaf explants; experiment: Direct selection of bombarded tobacco leaf explants on lethal level of PPT; format: cell-based, Nicotiana tabacum cv. Havana; settings: 4 mg/L PPT, leaves bombarded with pMON53159
Description: Dark green, round leaves are cut, preferably from the middle of the shoots, from 3-6 week old Nicotiana tabacum cv. Havana that have been maintained in vitro on hormone-free MS medium (Murashige and Skoog, (1962) Physiol Plant. 15, 473-497) supplemented with B5 vitamins in Phytatrays or sundae cups with a 16-hour photoperiod at 24° C. Each cut leaf is then placed adaxial side up on sterile filter paper over tobacco shoot regeneration medium (TSO medium: MS salts, 1 mg/L N^6-benzyladenine, 0.1 mg/L 1-naphthaleneacetic acid, 1 mg/L thiamine, 100 mg/L inositol, 7 g/L agar pH 5.8 and 30 g/L sucrose). Leaves are preferably placed in the center of the plate with as much contact with the medium as possible. The plates are preferably prepared immediately prior to use but may be prepared up to a day before transformation by particle bombardment by wrapping in plastic bags and storing at 24° C. overnight.
Plates containing the leaf samples are placed on the second shelf from the bottom of the vacuum chamber and bombarded using the 1100 p.s.i. rupture disk. After bombardment, petri plates containing the leaf samples are wrapped in plastic bags and incubated at 24° C. for 48 hours as a delay period prior to phase one culturing.
Direct selection of phosphinothricin (PPT) resistant transformants on lethal levels of PPT using plasmid pMON53159 carrying the bar gene alone were unsuccessful. […]

[3] = test system: tobacco leaf plant cultures; experiment: Visual appearance of tobacco leaf cultures on drug-containing medium; format: cell-based, Nicotiana tabacum cv Petit Havana
Description: as §1

| SMILES | plastid ultrastructure (TEM) ([1]; 4 mg/L phosphinothricin, 3 days) | plastid ultrastructure (TEM) ([1]; 4 mg/L phosphinothricin, 7 days) | plastid ultrastructure (TEM) ([1]; 4 mg/L phosphinothricin, 12 days) | appearance of explants under direct selection [2] | plastoglobuli diameter ([1]; 1 μM glyphosate, 7 days) | plastid ultrastructure (TEM) ([1]; 1 μM glyphosate, 7 days, TSO medium) | plastid ultrastructure (TEM) ([1]; 5 μM glyphosate, 7 days) | plastid ultrastructure (TEM) ([1]; 10 μM glyphosate, 7 days) | plastid ultrastructure (TEM) ([1]; 20 μM glyphosate, 3 days) | plastid ultrastructure (TEM) ([1]; 20 μM glyphosate, 7 days) | plastid ultrastructure (TEM) ([1]; 50 μM glyphosate, four weeks) | plastid ultrastructure (TEM) ([1]; 50 μM glyphosate, one week) | plastid ultrastructure (TEM) ([1]; 200 μM glyphosate, four weeks) | plastid ultrastructure (TEM) ([1]; 200 μM glyphosate, one week) | visual effect on plant cultures ([3]; after 1 week) | visual effect on plant cultures ([3]; after 4 weeks, lower concentrations of glyphosate) | plastid ultrastructure (TEM) ([1]; 500 mg/L spectinomycin, four weeks) | plastid ultrastructure (TEM) ([1]; 500 mg/L spectinomycin, one week) | visual effect on plant cultures ([3]; after 4 weeks, spectinomycin) |
| --- | --- | --- | --- | --- | --- | --- | --- | --- | --- | --- | --- | --- | --- | --- | --- | --- | --- | --- | --- |
| CP(=O)(O)CC[C@H](N)C(=O)O [PPT, phosphinothricin] | Thylakoid membranes are completely absent | even more dramatic, with oil bodies accumulated in the organelles | even more dramatic, with oil bodies accumulated in the organelles | bleached and demonstrated little or no cell expansion |  |  |  |  |  |  |  |  |  |  |  |  |  |  |  |
| O=C(O)CNCP(=O)(O)O [glyphosate] |  |  |  |  | approximately 0.25 μm | typical morphology of metabolically active photosynthetic plastids | normal in appearance | normal in appearance | chloroplasts are beginning to show morphological damage | thylakoid membrane system is severely damaged | plastids appear to have recovered or adapted to some degree | reticulate network of thylakoid membranes has disappeared | completely devoid of internal structure | damage to plastid structure is occurring rapidly | minimal effect visually on plant cultures | begin to form shoot primordia indicating recovery of the tissue |  |  |  |
| CN[C@@H]1[C@H](O)[C@H](NC)[C@H]2O[C@@]3(O)C(=O)C[C@@H](C)O[C@H]3O[C@@H]2[C@H]1O [spectinomycin] |  |  |  |  |  |  |  |  |  |  |  |  |  |  | minimal effect on plant cultures visually |  | plastids internal membranes have broken down almost completely and become vacuolated | plastids look relatively normal | tissue is completely bleached |
